Source: patent US20220117919A1, “ENHANCED BIOAVAILABILITY OF N-(2,6-BIS(1-METHYLETHYL)PHENYL)-N'-((1-(4-(DIMETHYLAMINO)-PHENYL)CYCLOPENTYL)METHYL)UREA HYDROCHLORIDE” (The Regents of the University of Michigan, priority 2015, published 2022)
“And” between values parts separate entries of the source, which are not always exact repeats. Equal values may be shown once. Where a name gives a salt, the structure may show the parent alone. Read-outs that look alike come from different tables or passages of the source.

Assay: Food and acidic beverage effect on bioavailability of ATR-101 tablets, 3-way crossover plasma PK study
Assay type: in vivo, human
Conditions: for kel: in h-1; for AUC0-t Ratio C/A: fasting with acidic beverage vs fasting with water; for AUC0-t Ratio B/C: fed with water vs fasting with acidic beverage; for AUC0-t Ratio B/A: fed with water vs fasting with water
Protocol: To evaluate the effects of food and of an acidic beverage on bioavailability of ATR-101 tablets prepared according to Example 2 (see Table 2), an open-label, randomized, 3-period, 3-way crossover, 3-sequence study was carried out with fourteen healthy, adult, non-tobacco using male and female (non-childbearing potential only) human subjects.
Three different treatments A, B, and C were administered as follows:
Treatment A: 500 mg ATR-101 (1×500 mg tablet) administered with water at Hour 0 on Day 1 following an overnight fast.
Treatment B: 500 mg ATR-101 (1×500 mg tablet) administered with water at Hour 0, 30 minutes after the start of a high-fat breakfast, on Day 1.
Treatment C: 500 mg ATR-101 (1×500 mg tablet) administered with Coca-Cola® Classic at Hour 0 on Day 1 following an overnight fast.
On Day 1 of Period 1, subjects were randomized to one of 3 treatment sequences: ABC, BCA, or CBA. For Treatments A and B, ATR-101 was administered orally with approximately 240 mL of water. For Treatment C, ATR-101 was administered orally with approximately 240 mL of Coca-Cola® Classic. Water (except water provided with dosing for Treatments A and B) was restricted 1 hour prior to and 1 hour after each study drug administration, but was allowed ad libitum at all other times. Other fluids were given as part of the standard meals (including the breakfast administered prior to study drug dosing for Treatment B) and/or snacks, but were restricted at all other times (except for the Coca-Cola® Classic beverage provided with dosing in Treatment C) throughout the confinement period.
For Treatments A and C, subjects fasted overnight for at least 10 hours prior to study drug administration and continued the fast for at least 4 hours post-dose.
For Treatment B, subjects were required to fast overnight for at least 10 hours until 30 minutes prior to study drug administration, when they were given breakfast which was entirely consumed within 30 minutes. A representative breakfast includes 2 slices of buttered toast, 2 fried eggs, 2 strips of bacon, 4 oz of hash brown potatoes, and 240 mL of whole milk.
On Day 1 of each period, a standard lunch and dinner was provided at approximately 4 and 9 hours post-dose, respectively, and a snack was also offered at approximately 12 hours post-dose. On other days when confined in the CRU, standard meals and/or snacks were provided at appropriate times. When confined, subjects were required to fast from all food and drink except water between meals and snacks served at the clinical research unit.
Each meal and/or snack served at the clinical research unit was standardized and was similar in caloric content and composition (except for the meal served as part of Treatment B) and was taken at approximately the same time in each period.
For all subjects, blood samples for the determination of ATR-101 plasma concentration were collected at pre-dose and 0.5, 1, 1.5, 2, 2.5, 3, 3.5, 4, 5, 6, 8, 12, 16, 24, 36, and 48 hours post-dose. PK parameters for plasma ATR-101 were calculated as follows: • AUC0-t: The area under the plasma concentration-time curve, from time 0 to the last measurable non-zero concentration, was calculated by the linear trapezoidal method. • AUC0-inf: The area under the plasma concentration-time curve from time 0 extrapolated to infinity. AUC0-inf was calculated as the sum of AUC0-t plus the ratio of the last measurable plasma concentration to the elimination rate constant. • AUC%extrap: Percent of AUC0-inf extrapolated, represented as
[formula] • Cmax: Maximum observed concentration. • tmax: Time to reach Cmax. If the maximum value occurred at more than one time point, tmax was defined as the first time point with this value. • ke1: Apparent first-order terminal elimination rate constant calculated from a semi-log plot of the plasma concentration versus time curve. […]

[1] = Treatment C (fasting with acidic beverage), single oral 500 mg, Minimum
[2] = Treatment C (fasting with acidic beverage, Coca-Cola Classic), single oral 500 mg, individual subject, hydrochloride
[3] = individual subject, hydrochloride

## CC(C)c1cccc(C(C)C)c1NC(=O)NCC1(c2ccc(N(C)C)cc2)CCCC1 [ATR-101, N-(2,6-bis(1-methylethyl)phenyl)-N′-((1-(4-(dimethylamino)-phenyl)cyclopentyl)methyl)urea hydrochloride]
[1]
  tmax: 1.50 h
  kel: 0.0249
[2]
  AUC0-inf: 728 and 3990 and 5760 and 2610 and 5420 and 4530 and 6970 and 2880 and 3670 and 2670 and 6680 and 5020
  AUC0-t: 572 and 5100 and 2510 and 4940 and 4110 and 6430 and 2360 and 3660 and 3400 and 2250 and 6310 and 4300
  AUC% extrap: 21.5% and 4.67% and 11.3% and 3.84% and 8.70% and 9.20% and 7.61% and 18.3% and 7.31% and 15.6% and 5.52% and 14.2%
  Cmax: 19.8 ng/mL and 734 ng/mL and 1030 ng/mL and 438 ng/mL and 948 ng/mL and 645 ng/mL and 952 ng/mL and 461 ng/mL and 602 ng/mL and 525 ng/mL and 1550 ng/mL and 893 ng/mL
  t1/2: 17.5 h and 13.8 h and 8.2 h and 14.0 h and 18.7 h and 20.1 h and 7.9 h and 16.0 h and 26.9 h and 14.2 h and 27.1 h
  tmax: 6.00 h and 3.00 h and 1.50 h and 2.50 h
  kel: 0.0397 and 0.0501 and 0.0380 and 0.0496 and 0.0371 and 0.0345 and 0.0353 and 0.0249 and 0.0433 and 0.0258 and 0.0488 and 0.0256
Both sexes, human, plasma, po, 500 mg, Treatment A (fasting with water), single oral 500 mg, Geometric Mean, read-out: AUC0-inf
  AUC0-inf: 3480 ng·h/mL
Both sexes, human, plasma, po, 500 mg, Treatment A (fasting with water), single oral 500 mg, Geometric Mean, read-out: AUC0-t
  AUC0-t: 2710 ng·h/mL
Both sexes, human, plasma, po, 500 mg, Treatment A (fasting with water), single oral 500 mg, Geometric Mean, read-out: Cmax
  Cmax: 469 ng/mL
Both sexes, human, plasma, po, 500 mg, Treatment A (fasting with water), single oral 500 mg, Mean
  half-life: 17.9 h
Both sexes, human, plasma, po, 500 mg, Treatment A (fasting with water), single oral 500 mg, Mean, read-out: AUC0-inf
  AUC0-inf: 3620 ng·h/mL
Both sexes, human, plasma, po, 500 mg, Treatment A (fasting with water), single oral 500 mg, Mean, read-out: AUC0-t
  AUC0-t: 2970 ng·h/mL
Both sexes, human, plasma, po, 500 mg, Treatment A (fasting with water), single oral 500 mg, Mean, read-out: Cmax
  Cmax: 575 ng/mL
Both sexes, human, plasma, po, 500 mg, Treatment A (fasting with water), single oral 500 mg, Median
  half-life: 18.2 h
Both sexes, human, plasma, po, 500 mg, Treatment A (fasting with water), single oral 500 mg, Median, read-out: AUC0-inf
  AUC0-inf: 3400 ng·h/mL
Both sexes, human, plasma, po, 500 mg, Treatment A (fasting with water), single oral 500 mg, Median, read-out: AUC0-t
  AUC0-t: 2620 ng·h/mL
Both sexes, human, plasma, po, 500 mg, Treatment A (fasting with water), single oral 500 mg, Median, read-out: Cmax
  Cmax: 542 ng/mL
Both sexes, human, plasma, po, 500 mg, Treatment A (fasting with water), single oral 500 mg, Median, read-out: tmax
  tmax: 2 h
Both sexes, human, plasma, po, 500 mg, Treatment B (fed with water), single oral 500 mg, Geometric Mean, read-out: AUC0-inf
  AUC0-inf: 6740 ng·h/mL
Both sexes, human, plasma, po, 500 mg, Treatment B (fed with water), single oral 500 mg, Geometric Mean, read-out: AUC0-t
  AUC0-t: 6200 ng·h/mL
Both sexes, human, plasma, po, 500 mg, Treatment B (fed with water), single oral 500 mg, Geometric Mean, read-out: Cmax
  Cmax: 1180 ng/mL
Both sexes, human, plasma, po, 500 mg, Treatment B (fed with water), single oral 500 mg, Mean
  half-life: 20.4 h
Both sexes, human, plasma, po, 500 mg, Treatment B (fed with water), single oral 500 mg, Mean, read-out: AUC0-inf
  AUC0-inf: 7130 ng·h/mL
Both sexes, human, plasma, po, 500 mg, Treatment B (fed with water), single oral 500 mg, Mean, read-out: AUC0-t
  AUC0-t: 6560 ng·h/mL
Both sexes, human, plasma, po, 500 mg, Treatment B (fed with water), single oral 500 mg, Mean, read-out: Cmax
  Cmax: 1250 ng/mL
Both sexes, human, plasma, po, 500 mg, Treatment B (fed with water), single oral 500 mg, Median
  half-life: 18.9 h
Both sexes, human, plasma, po, 500 mg, Treatment B (fed with water), single oral 500 mg, Median, read-out: AUC0-inf
  AUC0-inf: 6810 ng·h/mL
Both sexes, human, plasma, po, 500 mg, Treatment B (fed with water), single oral 500 mg, Median, read-out: AUC0-t
  AUC0-t: 6110 ng·h/mL
Both sexes, human, plasma, po, 500 mg, Treatment B (fed with water), single oral 500 mg, Median, read-out: Cmax
  Cmax: 1150 ng/mL
Both sexes, human, plasma, po, 500 mg, Treatment B (fed with water), single oral 500 mg, Median, read-out: tmax
  tmax: 2.75 h
Both sexes, human, plasma, po, 500 mg, Treatment C (fasting with acidic beverage), single oral 500 mg, Geometric Mean, read-out: AUC0-inf
  AUC0-inf: 3720 ng·h/mL
Both sexes, human, plasma, po, 500 mg, Treatment C (fasting with acidic beverage), single oral 500 mg, Geometric Mean, read-out: AUC0-t
  AUC0-t: 3340 ng·h/mL
Both sexes, human, plasma, po, 500 mg, Treatment C (fasting with acidic beverage), single oral 500 mg, Geometric Mean, read-out: Cmax
  Cmax: 558 ng/mL
Both sexes, human, plasma, po, 500 mg, Treatment C (fasting with acidic beverage), single oral 500 mg, Mean
  half-life: 19.5 h
Both sexes, human, plasma, po, 500 mg, Treatment C (fasting with acidic beverage), single oral 500 mg, Mean, read-out: AUC0-inf
  AUC0-inf: 4240 ng·h/mL
Both sexes, human, plasma, po, 500 mg, Treatment C (fasting with acidic beverage), single oral 500 mg, Mean, read-out: AUC0-t
  AUC0-t: 3830 ng·h/mL
Both sexes, human, plasma, po, 500 mg, Treatment C (fasting with acidic beverage), single oral 500 mg, Mean, read-out: Cmax
  Cmax: 728 ng/mL
Both sexes, human, plasma, po, 500 mg, Treatment C (fasting with acidic beverage), single oral 500 mg, Median
  half-life: 18.4 h
Both sexes, human, plasma, po, 500 mg, Treatment C (fasting with acidic beverage), single oral 500 mg, Median, read-out: AUC0-inf
  AUC0-inf: 4260 ng·h/mL
Both sexes, human, plasma, po, 500 mg, Treatment C (fasting with acidic beverage), single oral 500 mg, Median, read-out: AUC0-t
  AUC0-t: 3800 ng·h/mL
Both sexes, human, plasma, po, 500 mg, Treatment C (fasting with acidic beverage), single oral 500 mg, Median, read-out: Cmax
  Cmax: 666 ng/mL
Both sexes, human, plasma, po, 500 mg, Treatment C (fasting with acidic beverage), single oral 500 mg, Median, read-out: tmax
  tmax: 2 h
Geometric Mean
  AUC0-t Ratio C/A: 126%
  AUC0-t Ratio B/C: 184%
  AUC0-t Ratio B/A: 233%
Maximum
  AUC0-t Ratio C/A: 588%
  AUC0-t Ratio B/C: 615%
  AUC0-t Ratio B/A: 490%
Mean
  AUC0-t Ratio C/A: 160%
  AUC0-t Ratio B/C: 208%
  AUC0-t Ratio B/A: 253%
Median
  AUC0-t Ratio C/A: 131%
  AUC0-t Ratio B/C: 156%
  AUC0-t Ratio B/A: 211%
Minimum
  AUC0-t Ratio C/A: 23.3%
  AUC0-t Ratio B/C: 83.2%
  AUC0-t Ratio B/A: 132%
[3]
  AUC0-t Ratio C/A: 23.3% and 120% and 134% and 101% and 588% and 187% and 132% and 155% and 89.3% and 130% and 143% and 111%
  AUC0-t Ratio B/C: 615% and 156% (2×) and 258% and 210% and 83.2% and 168% and 131% and 267% and 148% and 211% and 147% and 153%
  AUC0-t Ratio B/A: 144% and 187% and 346% and 212% and 490% and 313% and 173% and 292% and 415% and 132% and 203% and 211% and 169%
Fed state (Treatment B) compared to fasting state with acidic beverage (Treatment C)
  increase in systemic exposure: 108%
Fed state (Treatment B) compared to fasting state with water (Treatment A)
  increase in systemic exposure: 153%
